# Laboratory results as given in publication PMC8924211 (Nature Communications, 2022).
# Substitutions are numbered along the chain they refer to.
# Key:
# GAL2R = target: T1, GAL2R (Homo sapiens, UniProt O43603); assay: Calcium assay, HEK293/Gα16 cells, WT GAL2R; format: cell-based
# T1 construct: expressed in transfected cells; host or cells: HEK293/Gα16
# T1 sequence (O43603 1-387): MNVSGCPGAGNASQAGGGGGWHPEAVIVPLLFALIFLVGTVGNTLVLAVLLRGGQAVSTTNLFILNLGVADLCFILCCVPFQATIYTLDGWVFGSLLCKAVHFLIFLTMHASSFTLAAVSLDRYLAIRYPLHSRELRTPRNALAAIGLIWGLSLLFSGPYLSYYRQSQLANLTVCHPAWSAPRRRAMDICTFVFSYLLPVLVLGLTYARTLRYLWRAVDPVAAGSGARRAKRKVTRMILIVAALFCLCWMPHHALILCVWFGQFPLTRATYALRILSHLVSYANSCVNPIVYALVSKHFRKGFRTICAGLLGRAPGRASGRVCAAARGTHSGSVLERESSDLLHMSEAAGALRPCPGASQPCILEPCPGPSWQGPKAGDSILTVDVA
# GAL2R over GAL1R = conditions: cross-reactivity to galanin receptors; cited from earlier work
# Source text: In contrast, L^4P contacts with equivalent ECL2 residues with weaker hydrophobicity (L169^ECL2, A170^ECL2, and L172^ECL2) in GAL2R (Fig. 3e, Supplementary Fig. 4b). The structural observation is coincident with our peptide truncation assay.
# GAL1R = GAL1R (Homo sapiens, UniProt P47211); assay: Calcium assay, HEK293/Gα16 cells, WT GAL1R; format: cell-based; conditions: HEK293/Gα16, calcium response (Supplementary Fig. 9a)
# GAL2R mutants [1] = target: T2, GAL2R mutants (Homo sapiens, UniProt O43603, Y271A); assay: Calcium assay, HEK293/Gα16 cells, GAL2R mutants; format: cell-based; conditions: GAL2R Y2717.32A
# T2 construct: expressed in transfected cells; host or cells: HEK293
# T2 sequence (O43603 1-387 Y271A): T1 sequence (O43603 1-387) with Y271A
# GAL2R mutants [2] = target: T3, GAL2R mutants (Homo sapiens, UniProt O43603, A170S); assay: Calcium assay, HEK293/Gα16 cells, GAL2R mutants; format: cell-based; conditions: GAL2R A170ECL2S
# T3 construct: expressed in transfected cells; host or cells: HEK293
# T3 sequence (O43603 1-387 A170S): T1 sequence (O43603 1-387) with A170S
# GAL2R mutants [3] = target: T4, GAL2R mutants (Homo sapiens, UniProt O43603, Q82A); assay: Calcium assay, HEK293/Gα16 cells, GAL2R mutants; format: cell-based; conditions: GAL2R Q822.61A
# T4 construct: expressed in transfected cells; host or cells: HEK293
# T4 sequence (O43603 1-387 Q82A): T1 sequence (O43603 1-387) with Q82A
# [4] = response of 100 μM spexin compared to WT, mean ± S.E.M.
# GAL1R, sequence (P47211 whole entry): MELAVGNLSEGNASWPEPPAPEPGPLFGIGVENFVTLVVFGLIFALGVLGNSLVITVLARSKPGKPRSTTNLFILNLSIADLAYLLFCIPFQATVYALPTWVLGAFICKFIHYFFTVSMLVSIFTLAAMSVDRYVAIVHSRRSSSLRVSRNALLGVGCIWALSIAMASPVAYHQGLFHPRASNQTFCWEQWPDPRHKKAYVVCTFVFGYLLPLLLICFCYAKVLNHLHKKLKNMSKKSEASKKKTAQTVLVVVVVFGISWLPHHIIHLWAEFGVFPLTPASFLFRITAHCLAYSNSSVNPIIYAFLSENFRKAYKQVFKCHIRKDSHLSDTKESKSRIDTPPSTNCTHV
substance,measurement,setting,value
spexin,Emax,GAL2R; [4],100±4.9%
same,EC50,"GAL2R; spexin, replicate 1",326.8 nM
same,Emax,"GAL2R; spexin, replicate 1",101.879%
same,EC50,"GAL2R; spexin, replicate 2",177.5 nM
same,Emax,"GAL2R; spexin, replicate 2",107.462%
same,EC50,"GAL2R; spexin, replicate 3",81.38 nM
same,Emax,"GAL2R; spexin, replicate 3",90.6585%
same,affinity for GALR2 versus GALR1,GAL2R over GAL1R,high affinity for GALR2 but not GALR1
same,activation of GAL1R,GAL1R,did not activate
same,Emax,GAL2R mutants [1]; [4],22.23±2.2%
same,EC50,"GAL2R mutants [1]; spexin, replicate 1",5958 nM
same,Emax,"GAL2R mutants [1]; spexin, replicate 1",23.9745%
same,EC50,"GAL2R mutants [1]; spexin, replicate 2",1581 nM
same,Emax,"GAL2R mutants [1]; spexin, replicate 2",17.9395%
same,EC50,"GAL2R mutants [1]; spexin, replicate 3",751.8 nM
same,Emax,"GAL2R mutants [1]; spexin, replicate 3",24.7776%
same,Emax,GAL2R mutants [2]; [4],17.66±5.3%
same,EC50,"GAL2R mutants [2]; spexin, replicate 1",95.4 nM
same,Emax,"GAL2R mutants [2]; spexin, replicate 1",11.3367%
same,EC50,"GAL2R mutants [2]; spexin, replicate 2",151.4 nM
same,Emax,"GAL2R mutants [2]; spexin, replicate 2",13.424%
same,EC50,"GAL2R mutants [2]; spexin, replicate 3",150.6 nM
same,Emax,"GAL2R mutants [2]; spexin, replicate 3",28.2269%
same,Emax,GAL2R mutants [3]; response of 100 μM spexin compared to WT,"NR (NR, no response, refers to response < 10% compared to WT receptor (spexin at 100 μM))"
same,Emax,"GAL2R mutants [3]; spexin, replicate 1",no response
same,Emax,"GAL2R mutants [3]; spexin, replicate 2",no response
same,Emax,"GAL2R mutants [3]; spexin, replicate 3",no response
